Results: patent publication US4500511A, “Antiinflammatory and analgesic gel” (Grelan Pharmaceutical Co., Ltd., priority 1982, dated 1985)

Tested on: vascular permeability
Assay: Suppression of increased vascular permeability (λ-carrageenin, dye leakage) in guinea pigs
Format: in vivo, Hartley strain albino guinea pigs
Settings: oral, 2.0 mg/kg; for Suppression rate: *p < 0.05
Procedure: The hair on the back of Hartley strain albino guinea pigs (male; weighing 235 to 270 g; in groups of 7 animals) was removed with an electric hair clipper and an electric razor, circles, 2.5 cm in diameter (4.91 cm^2 in area), were drawn symmetrically on both sides of the medium line, and 50 mg of each test external preparation was applied to the area of each circle. Three hours after application, 0.1 ml of 0.1% λ-carrageeninsolution was injected intradermally into the center of each circle, followed by injection of 0.5 ml/100 g of body weight of 0.5% Pontamine sky blue solution into the vein of the penis. Three hours after injection, each animal was sacrificed by decapitation, exsanguinated and flayed, and the area of dye leakage (major axis x minor axis) on the inner side of the skin was measured with slide calipers.
The external preparations used were preparations (A), (D), (E) and (H) containing of 0.1%, 0.25%, 0.5% and 1% of clidanac, respectively, and preparations (f), (g), (h) and (i) containing 0.1%, 0.25%, 0.5% and 1% of indomethacin, respectively. In the control group, any preparation was not administered but massage alone was performed.
For further comparison, oral preparations respectively containing clidanac and indomethacin were prepared by the procedure of Reference Example 4 and orally administered in a clidanac dose of 2 mg/kg and in an indomethacin dose of 2 mg/kg, respectively, and the animals were treated in the same manner as mentioned above.
The rate of suppression was calculated using the follwoing formula: [formula] where C is the area of dye leakage for the control group and T is the area of dye leakage for the drug-treated group.

Row | SMILES | Area of dye leakage | Suppression rate
1 | O=C(O)C1CCc2cc(C3CCCCC3)c(Cl)cc21 (stereo not shown) [Clidanac, 6-chloro-5-cyclohexylindane-1-carboxylic acid] | 193.8 ± 12.1 mm^2 | 17.4%
2 | COc1ccc2c(c1)c(CC(=O)O)c(C)n2C(=O)c1ccc(Cl)cc1 [Indomethacin] | 195.7 ± 13.6 mm^2 | 16.6%
